The values that follow come from PMC7113753 (Antiviral Research, 2018).

For experiment [1], the target named is T1, PEDV PL2^pro (Porcine epidemic diarrhea virus, UniProt V5W8W2). As to the kind of experiment: biochemical. In kind it is biochemical.
In experiment [2] the target is T1, PEDV PL2^pro. It is filed as biochemical.
The next experiment relates to human USP2. The note with it: cited from earlier work.

Entries after “also recorded” stand apart in the source; their conditions may differ. Like-named read-outs stand apart in the source and are kept apart here.

Usually IC50 stands for the concentration that inhibits the measured activity by half. Take `Sc1ncnc2nc[nH]c12` [6MP, 6-mercaptopurine]: the IC50 against PEDV PL2^pro [1] came out at 58.1 ± 5.7 µM. With `Nc1nc2nc[nH]c2c(=S)[nH]1` [6TG, 6-thioguanine], the “IC50 of 6TG fold lower than that of 6MP” value on PEDV PL2^pro [1] turned out to be 4.2 fold. For the same compound, the values for the pattern of inhibition result on PEDV PL2^pro [2] and with human USP2 were “noncompetitive inhibitor; also recorded: noncompetitive pattern of inhibition” and “noncompetitive inhibitory effect”, respectively. In the case of `CCN(CC)C(=S)SSC(=S)N(CC)CC` [Disulfiram], the IC50 against PEDV PL2^pro [1] was more than 100 µM. As to `O=C(O)CN(CCN(CC(=O)O)CC(=O)O)CC(=O)O` [EDTA], on PEDV PL2^pro [1], the “inhibition of DUB activity by EDTA (in words)” value was “dose-dependent pattern”. On to `Cc1ccc(N)cc1C(=O)N[C@H](C)c1cccc2ccccc12` [GRL0617], for which the IC50 at PEDV PL2^pro [1] (read-out: IC50 (DUB activity), pH 6.5) was more than 100 µM. Consider `O=c1[nH]cnc2nc[nH]c12` [Hypoxanthine], for which, on PEDV PL2^pro [1], the IC50 is more than 200 µM and the “inhibitory activity (in words)” value is listed as “devoid of inhibitory activity”. At PEDV PL2^pro [1], `COc1c(C)c2c(c(O)c1C/C=C(\C)CCC(=O)O)C(=O)OC2` [Mycophenolic acid] yielded an IC50 of more than 200 µM. Consider zinc ions, for which the “inhibition of DUB activity by external zinc ions (in words)” value at PEDV PL2^pro [1] was “can be inhibited”.
